# Reference: PubChem BioAssay (NCI)
#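 96-well plates; 48 h exposure; 5 concentrations. Endpoints by linear interpolation between flanking doses. Not reached: highest tested concentration assigned. The concentration for full growth arrest is given as TGI.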
# What was measured:
# Assay in all cases: NCI anticancer screen, dose series, 48 h
# [1] = tested on: IGROV1 ovarian
# [2] = tested on: SK-MEL-28 melanoma
# [3] = tested on: SW-620 colon
# [4] = tested on: OVCAR-5 ovarian
# [5] = tested on: UACC-257 melanoma
# [6] = tested on: SNB-75 CNS
# [7] = tested on: KM12 colon
# [8] = tested on: HCT-15 colon
# [9] = tested on: MDA-MB-231 breast
# [10] = tested on: HL-60(TB) leukemia
SMILES,TGI [1] [µM],TGI [2] [µM],TGI [3] [µM],TGI [4] [µM],TGI [5] [µM],TGI [6] [µM],TGI [7] [µM],TGI [8] [µM],TGI [9] [µM],TGI [10] [µM]
C/C(C=O)=N\Nc1cc(C)c2ccccc2n1,32.1,39.1,72.8,34.3,36.6,30.3,28.5,26.3,32.3,
Cc1sc2ncnc(NCCc3ccccc3)c2c1C,32.5,35,> 100,35.8,17.3,53.5,29.6,87.7,37.9,29.3
Oc1ccccc1C=Nc1ccc(Oc2ccc(Cl)cc2)c(Cl)c1,> 100,72.5,> 100,79.5,> 100,58.6,65.1,36.6,40.4,65.4
O=C(CNC(=O)OCc1ccccc1)NCCCCC(NC(=O)OCc1ccccc1)C(=O)O (centres undefined),> 100,> 100,> 100,> 100,> 100,> 100,> 100,> 100,> 100,> 100
Cc1ccc2c(ccc3c[n+]4ccccc4c(C)c32)c1,34.7,11.5,22.8,65,5.59,,2.5,> 100,23.1,> 100
COc1ccc(NC=O)c(C(O)CCNC(C)=O)c1 (centres undefined),> 100,,> 100,> 100,> 100,> 100,> 100,> 100,> 100,> 100
N[C@@H]1C[C@H](N)c2c(Cl)sc(Cl)c21,> 100,> 100,> 100,> 100,> 100,> 100,> 100,> 100,> 100,
C[N+](C)(C)CC1Cc2ccccc2C1=O (centres undefined),> 10,> 10,3.84,> 10,> 10,> 10,> 10,> 10,> 10,4.45
CC1C2CC(C(C3C(=O)C4CC3C(C)(C)C4C)C2=O)C1(C)C (centres undefined),> 100,> 100,> 100,> 100,> 100,> 100,> 100,,> 100,> 100
CCCCCCCCCC(=O)OCC1(CO)C/C(=C/CC(C(C)C)C(C)C)C(=O)O1 (centres undefined),> 100,> 100,81.6,> 100,> 100,> 100,83.7,> 100,> 100,
CSC1=N/C(=C\c2cccs2)C(=O)N1CN1CCCCC1,> 100,> 100,> 100,> 100,,> 100,> 100,> 100,> 100,
COc1ccc(/C=C/C(=O)NCC(NC(=O)/C=C/c2ccc(OC)c(OC)c2)C(=O)O)cc1OC (centres undefined),,> 100,> 100,> 100,> 100,> 100,> 100,,> 100,
CCOC(=O)[C@H]1C[C@@H](C(=O)c2ccccc2)N2N=C(c3ccc(Br)cc3)C=C[C@H]12,,> 100,> 100,> 100,> 100,> 100,> 100,> 100,> 100,
CSc1nc(=S)[nH]c2n[nH]c(C)c12,,> 100,> 100,> 100,> 100,> 100,> 100,> 100,> 100,> 100
CC(C#N)Nc1ccc(Oc2ccc(C(C)(C)c3ccc(Oc4ccc(NC(C)C#N)cc4)cc3)cc2)cc1 (centres undefined),> 100,> 100,> 100,> 100,> 100,> 100,> 100,> 100,> 100,
CC1CN=C(NCc2ccccc2)S1 (centres undefined),,> 100,,> 100,> 100,> 100,> 100,> 100,> 100,> 100
COC(=O)n1c(=O)nc2c3c(ncn21)Oc1c(c(-c2ccccc2)nn1-c1ccccc1)C3c1ccc(Cl)cc1 (centres undefined),,3.18,3.06,2.58,3.76,7.69,2.66,2.95,3.05,3.17
c1ccc(C2=NN(c3ccccc3)C3(S2)SC(c2ccccc2)(c2ccccc2)c2ccccc23)cc1 (centres undefined),> 100,> 100,> 100,> 100,> 100,> 100,> 100,> 100,,> 100
CC(=O)Nc1ccc(-c2nnc(SCC(=O)Nc3ccccc3Cl)o2)cc1,> 100,> 100,> 100,> 100,> 100,> 100,> 100,> 100,,> 100
CCCOC(=O)c1cc(C(=CCC[C@H]2CC[C@@]3(C)[C@@H](CC[C@@H]4[C@@H]3CC[C@]3(C)[C@@H](C(C)CCCC(C)C)CC[C@@H]43)C2)c2cc(Cl)c(O)c(C(=O)OCCC)c2)cc(Cl)c1O (some centres undefined),> 50,,> 50,,,> 50,> 50,> 50,> 50,> 50
Cc1nc2ccccc2nc1NS(=O)(=O)c1ccc(N)cc1,> 100,> 100,> 100,> 100,> 100,> 100,> 100,> 100,,> 100
NC(=S)N/N=C/c1cc(CN2CCOCC2)c(N)cn1,> 100,,> 100,> 100,> 100,89.4,> 100,> 100,> 100,> 100
O=c1nc2n(CCO)c(-c3ccccc3)c(-c3ccccc3)nc-2c(=O)[nH]1,> 100,> 100,> 100,> 100,> 100,> 100,> 100,> 100,> 100,
